From US20160047819A1, “METHOD FOR DIAGNOSING VAGINAL INFECTIONS” (priority 2013, published 2016)

Test system: vaginal proteome (human proteins in vaginal fluid)
Experiment: MS/MS proteomic analysis of vaginal fluid pools, BV-affected women before (BV) and after rifaximin/placebo treatment: human proteins
Format: in vivo
Procedure: Proteomic analysis was performed on 9 pools of vaginal isolates, grouped according to the status of the BV infection: • H pool (from 41 healthy women); BV pool (from 39 BV-affected women); • A-R pool (from 2 women who were in remission after rifaximin treatment-group A); • A-N pool (from 8 women who were not in remission after rifaximin treatment-group A); • B-R pool (from 5 women who were in remission after rifaximin treatment-group B); • B-N pool (from 5 women who were not in remission after rifaximin treatment-group B); • C-R pool (from 4 women who were in remission after rifaximin treatment-group C); • C-N (from 5 women who were not in remission after rifaximin treatment-group C); • D-N (from 10 women who were not in remission after placebo treatment-group D). Scheme of the vaginal fluids collected for testing the diagnostic method is represented in FIG. 1.
In these figures are reported the peptides in the fractionated pools of healthy women, women affected by BV and peptides of women treated with rifaximin. The treatment with rifaximin was at dosage of 100 mg/day for 5 days; (remission, A-R; no remission, A-N), 25 mg/5 days (remission, B-R; no remission, B-N), 100 mg/2 days (remission, C-R; no remission, C-N), and placebo for 5 days (D-N). Two types of comparisons were carried out: (i) between fractionated pools of proteins from vaginal fluid of healthy women (HF) versus fractionated pool of proteins from vaginal fluid of women affected by bacterial vaginosis (BVF); (ii) between whole pools of proteins from vaginal fluid of women affected by BV treated by administering different doses of rifaximin or placebo before (BV) and after (A-R, A-N, B-R, B-N, C-R, C-N, D-N) treatment. Fractioned pools of proteins are obtained, e.g., by separating the proteins by separation on membrane filtration with different membrane porosity, prior to MS/MS analysis.
Nine volumes of acetone: HCl (10:1) were added to the supernatant of the vaginal rinsing and proteins were precipitated by centrifuging at 12000 g for 10 min. The protein pellet was dissolved in 1 mL of 70% ethanol and the sample was spun at 12000 g for 10 min. One mL of acetone was added and the proteins were further precipitated by centrifugation at 12000 g for 5 min. After removing supernatant, pellet was dried by SpeedVac concentrator (Thermo Savant ISS110, Thermo Fisher Scientific, Waltham, Mass.) and then stored at −20° C.
Protein extract was quantified using the 2-D Quant Kit (GE Healthcare, Uppsala, Sweden) according to the manufacturer's instructions.
Patients who were diagnosed for BV at the study visit V1 were included in a multicentre, double-blind, randomised, placebo-controlled study (EudraCT: 2009-011826-32), that was performed to compare the efficacy of different doses of rifaximin vaginal tablets versus placebo for the treatment of BV. The patients underwent a randomisation visit and were distributed into 4 treatment groups: group A received 100 mg rifaximin vaginal tablet once daily for 5 days (n=10), group B received 25 mg rifaximin vaginal tablet once daily for 5 days (n=10), group C received 100 mg rifaximin vaginal tablet once daily for the first 2 days and placebo vaginal tablet for the remaining 3 days (n=9), group D received placebo vaginal tablet once daily for 5 days (n=10). Study medication was administered intra-vaginally at bedtime. After 7 to 10 days from the end of the therapy a follow-up visit (V3) was performed. Remission was evaluated at V3 according to Amsel's criteria (<3) and Gram stain Nugent score (≦3) (Table 1).
Standardized vaginal rinsings with 2 mL of saline were collected for analysis at V1 and V3 by flushing and re-aspirating the fluid through a 22 Gauge needle in the left, central and right upper vaginal vaults. The vaginal rinsings were subsequently stored at −80° C. until use.
MS/MS analysis was carried out for H and BV pools and for the whole BV, A-R, A-N, B-R, B-N, C-R, C-N and D-N pools containing 50 μg of protein each. […]

## CO[C@H]1/C=C/O[C@@]2(C)Oc3c(C)c(O)c4c(O)c(c5c(nc6cc(C)ccn65)c4c3C2=O)NC(=O)/C(C)=C\C=C\[C@H](C)[C@H](O)[C@@H](C)[C@@H](O)[C@@H](C)[C@H](OC(C)=O)[C@@H]1C [rifaximin]
Pool A-R after treatment
  Ratio X/H Zyxin (Q15942): −3.2
Pool B-N after treatment
  Ratio X/H Sciellin (O95171): 0.0
  Ratio X/H Semenogelin-2 (Q02383): −2.3
  Ratio X/H Serine protease 27 (Q9BQR3): 0.0
  Ratio X/H Serine/threonine-protein kinase ULK1 (O75385): 0.0
  Ratio X/H Serotransferrin (P02787): 0.0
  Ratio X/H Serpin B3 (P29508): 1.8
  Ratio X/H Serpin B4 (P48594): 1.5
  Ratio X/H Serpin B5 (P36952): 0.0
  Ratio X/H Serpin B6 (P35237): 0.0
  Ratio X/H Serpin B9 (P50453): 0.0
  Ratio X/H Serpin B12 (Q96P63): −1.8
  Ratio X/H Serpin B13 (Q9UIV8): 1.5
  Ratio X/H Serum albumin (P02768): 0.0
  Ratio X/H Serum paraoxonase/arylesterase 1 (P27169): 1.7
  Ratio X/H Small proline-rich protein 3 (Q9UBC9): 0.0
  Ratio X/H Stanniocalcin-1 (P52823): 1.7
  Ratio X/H Sulfhydryl oxidase 1 (O00391): 0.0
  Ratio X/H Superoxide dismutase [Cu—Zn] (P00441): 0.0
  Ratio X/H Suprabasin (Q6UWP8): 7.6
  Ratio X/H Syntenin-1 (O00560): 2.6
  Ratio X/H Talin-1 (Q9Y490): 0.0
  Ratio X/H Tctex1 domain-containing protein 2 (Q8WW35): −25.1
  Ratio X/H Teneurin-3 (Q9P273): 12.3
  Ratio X/H Thioredoxin (P10599): 1.5
  Ratio X/H Transaldolase (P37837): 1.6
  Ratio X/H Transmembrane protease serine 11D (O60235): −1.6
  Ratio X/H Transthyretin (P02766): 0.0
  Ratio X/H Tumor protein D54 (O43399): 0.0
  Ratio X/H UTP--glucose-1-phosphate uridylyltransferase (Q16851): 0.0
  Ratio X/H UV excision repair protein RAD23 homolog B (P54727): −1.6
  Ratio X/H Versican core protein (P13611): −1.7
  Ratio X/H Vinculin (P18206): 1.5
  Ratio X/H Vitamin D-binding protein (P02774): −2.0
  Ratio X/H Werner syndrome ATP-dependent helicase (Q14191): 131.2
  Ratio X/H Zinc finger protein 185 (O15231): 0.0
  Ratio X/H Zinc finger protein 335 (Q9H4Z2): 0.0
  Ratio X/H Zinc-alpha-2-glycoprotein (P25311): 0.0
  Ratio X/H Zyxin (Q15942): 0.0
Pool B-R after treatment
  Ratio X/H Sciellin (O95171): 0.0
  Ratio X/H Semenogelin-2 (Q02383): 5.9
  Ratio X/H Serine protease 27 (Q9BQR3): −2.3
  Ratio X/H Serine/threonine-protein kinase ULK1 (O75385): −4.4
  Ratio X/H Serotransferrin (P02787): −3.9
  Ratio X/H Serpin B3 (P29508): 4.3
  Ratio X/H Serpin B4 (P48594): 0.0
  Ratio X/H Serpin B5 (P36952): −4.7
  Ratio X/H Serpin B6 (P35237): 0.0
  Ratio X/H Serpin B9 (P50453): −5.6
  Ratio X/H Serpin B12 (Q96P63): −1.9
  Ratio X/H Serpin B13 (Q9UIV8): 0.0
  Ratio X/H Serum albumin (P02768): −13.2
  Ratio X/H Serum paraoxonase/arylesterase 1 (P27169): 0.0
  Ratio X/H Small proline-rich protein 3 (Q9UBC9): 6.6
  Ratio X/H Stanniocalcin-1 (P52823): 113.1
  Ratio X/H Sulfhydryl oxidase 1 (O00391): 1.6
  Ratio X/H Superoxide dismutase [Cu—Zn] (P00441): −1.5
  Ratio X/H Suprabasin (Q6UWP8): 15.1
  Ratio X/H Syntenin-1 (O00560): −3.1
  Ratio X/H Talin-1 (Q9Y490): −1.6
  Ratio X/H Tctex1 domain-containing protein 2 (Q8WW35): 4.2
  Ratio X/H Teneurin-3 (Q9P273): −2.3
  Ratio X/H Thioredoxin (P10599): 3.1
  Ratio X/H Transaldolase (P37837): −1.7
  Ratio X/H Transmembrane protease serine 11D (O60235): 2.6
  Ratio X/H Transthyretin (P02766): −4.7
  Ratio X/H Tumor protein D54 (O43399): 2.2
  Ratio X/H UTP--glucose-1-phosphate uridylyltransferase (Q16851): 0.0
  Ratio X/H UV excision repair protein RAD23 homolog B (P54727): −2.2
  Ratio X/H Uronyl 2-sulfotransferase (Q9Y2C2): 2.1
  Ratio X/H Versican core protein (P13611): 2.6
  Ratio X/H Vinculin (P18206): 0.0
  Ratio X/H Vitamin D-binding protein (P02774): −17.8
  Ratio X/H Werner syndrome ATP-dependent helicase (Q14191): 750.5
  Ratio X/H Zinc finger protein 185 (O15231): 5.8
  Ratio X/H Zinc finger protein 335 (Q9H4Z2): −1.6
  Ratio X/H Zinc-alpha-2-glycoprotein (P25311): −9.4
  Ratio X/H Zyxin (Q15942): −5.1
